Molecular target: T1, Nav1.7 (or SCN9A) channel (Homo sapiens, UniProt Q15858)
T1 construct: expressed in transfected cells
Assay: Nav1.7 (hSCN9A) block in HEK cells, PatchXpress 7000 automated electrophysiology, estimated IC50 (EIC50)
Assay type: cell-based
Details: PatchXpress assay; HEK cells stably transfected with hSCN9A, voltage-clamped at V1/2 of inactivation
Procedure: The ability of the compounds of formula (I) to block the Nav1.7 (or SCN9A) channel were measured using the assay described below.
Human Embryonic Kidney (HEK) cells were transfected with an hSCN9A construct using lipofectamine reagent (Invitrogen), using standard techniques. Cells stably expressing the hSCN9A constructs were identified by their resistance to G-418 (400 μg/ml). Clones were screened for expression using the whole-cell voltage-clamp technique.
HEK cells stably transfected with hSCN9A were maintained in DMEM medium supplemented with 10% heat-inactivated fetal bovine serum and 400 μg/ml G-418 in an incubator at 37° C. with a humidified atmosphere of 10% CO2. For HTS, cells were harvested from flasks by trypsinization and replated in an appropriate multi-well plate (typically 96 or 384 wells/plate) such that confluence would be achieved within 24 hours of plating. For electrophysiological studies, cells were removed from the culture flask by brief trypsinization and re-plated at low density onto glass cover slips. Cells were typically used for electrophysiological experiments within 24 to 72 hours after plating.
HEK cells stably transfected with hSCN9A were viewed under Hoffman contrast optics and placed in front of an array of flow pipes emitting either control or compound-containing extracellular solutions. All compounds were dissolved in dimethyl sulfoxide to make 10 mM stock solutions, which were then diluted into extracellular solution to attain the final concentrations desired. […] The voltage-dependence of inactivation was determined by applying a series of depolarizing prepulses (8 sec long in 10 mV increments) from a negative holding potential. The voltage was then immediately stepped to 0 mV to assess the magnitude of the sodium current. Currents elicited at 0 mV were plotted as a function of prepulse potential to allow estimation of the voltage at which 50% of the channels were inactivated (midpoint of inactivation or V1/2). Compounds were tested for their ability to inhibit hSCN9A sodium channels by activating the channel with a 20 msec voltage step to 0 mV following an 8 second conditioning prepulse to the empirically determined V1/2. Compound effect (% inhibition) was determined by difference in current amplitude before and after application of test compounds. For ease of comparison, “estimated IC-50” (EIC50) values were calculated from single point electrophysiology data by the following equation, (tested concentration, uM) X (100-% inhibition/% inhibition). Inhibition values <20% and >80% were excluded from the calculation.
Electrophysiological assays were conducted with PatchXpress 7000 hardware and associated software (Molecular Devices Corp). All assay buffers and solutions were identical to those used in conventional whole-cell voltage clamp experiments described above. hSCN9A cells were grown as above to 50%-80% confluency and harvested by trypsinization. Trypsinized cells were washed and resuspended in extracellular buffer at a concentration of 1×10^6 cells/ml. The onboard liquid handling facility of the PatchXpress was used for dispensing cells and application of test compounds. Determination of the voltage midpoint of inactivation was as described for conventional whole-cell recordings. Cells were then voltage-clamped to the empirically determined V1/2 and current was activated by a 20 msec voltage step to 0 mV.
Compounds of the Examples were tested in the assays described above and found to have the Nav1.7 EIC50 (μM) values specified in the table below. All data are derived from the PatchXpress assay unless explicitly stated otherwise.

T1 sequence (Q15858 whole entry): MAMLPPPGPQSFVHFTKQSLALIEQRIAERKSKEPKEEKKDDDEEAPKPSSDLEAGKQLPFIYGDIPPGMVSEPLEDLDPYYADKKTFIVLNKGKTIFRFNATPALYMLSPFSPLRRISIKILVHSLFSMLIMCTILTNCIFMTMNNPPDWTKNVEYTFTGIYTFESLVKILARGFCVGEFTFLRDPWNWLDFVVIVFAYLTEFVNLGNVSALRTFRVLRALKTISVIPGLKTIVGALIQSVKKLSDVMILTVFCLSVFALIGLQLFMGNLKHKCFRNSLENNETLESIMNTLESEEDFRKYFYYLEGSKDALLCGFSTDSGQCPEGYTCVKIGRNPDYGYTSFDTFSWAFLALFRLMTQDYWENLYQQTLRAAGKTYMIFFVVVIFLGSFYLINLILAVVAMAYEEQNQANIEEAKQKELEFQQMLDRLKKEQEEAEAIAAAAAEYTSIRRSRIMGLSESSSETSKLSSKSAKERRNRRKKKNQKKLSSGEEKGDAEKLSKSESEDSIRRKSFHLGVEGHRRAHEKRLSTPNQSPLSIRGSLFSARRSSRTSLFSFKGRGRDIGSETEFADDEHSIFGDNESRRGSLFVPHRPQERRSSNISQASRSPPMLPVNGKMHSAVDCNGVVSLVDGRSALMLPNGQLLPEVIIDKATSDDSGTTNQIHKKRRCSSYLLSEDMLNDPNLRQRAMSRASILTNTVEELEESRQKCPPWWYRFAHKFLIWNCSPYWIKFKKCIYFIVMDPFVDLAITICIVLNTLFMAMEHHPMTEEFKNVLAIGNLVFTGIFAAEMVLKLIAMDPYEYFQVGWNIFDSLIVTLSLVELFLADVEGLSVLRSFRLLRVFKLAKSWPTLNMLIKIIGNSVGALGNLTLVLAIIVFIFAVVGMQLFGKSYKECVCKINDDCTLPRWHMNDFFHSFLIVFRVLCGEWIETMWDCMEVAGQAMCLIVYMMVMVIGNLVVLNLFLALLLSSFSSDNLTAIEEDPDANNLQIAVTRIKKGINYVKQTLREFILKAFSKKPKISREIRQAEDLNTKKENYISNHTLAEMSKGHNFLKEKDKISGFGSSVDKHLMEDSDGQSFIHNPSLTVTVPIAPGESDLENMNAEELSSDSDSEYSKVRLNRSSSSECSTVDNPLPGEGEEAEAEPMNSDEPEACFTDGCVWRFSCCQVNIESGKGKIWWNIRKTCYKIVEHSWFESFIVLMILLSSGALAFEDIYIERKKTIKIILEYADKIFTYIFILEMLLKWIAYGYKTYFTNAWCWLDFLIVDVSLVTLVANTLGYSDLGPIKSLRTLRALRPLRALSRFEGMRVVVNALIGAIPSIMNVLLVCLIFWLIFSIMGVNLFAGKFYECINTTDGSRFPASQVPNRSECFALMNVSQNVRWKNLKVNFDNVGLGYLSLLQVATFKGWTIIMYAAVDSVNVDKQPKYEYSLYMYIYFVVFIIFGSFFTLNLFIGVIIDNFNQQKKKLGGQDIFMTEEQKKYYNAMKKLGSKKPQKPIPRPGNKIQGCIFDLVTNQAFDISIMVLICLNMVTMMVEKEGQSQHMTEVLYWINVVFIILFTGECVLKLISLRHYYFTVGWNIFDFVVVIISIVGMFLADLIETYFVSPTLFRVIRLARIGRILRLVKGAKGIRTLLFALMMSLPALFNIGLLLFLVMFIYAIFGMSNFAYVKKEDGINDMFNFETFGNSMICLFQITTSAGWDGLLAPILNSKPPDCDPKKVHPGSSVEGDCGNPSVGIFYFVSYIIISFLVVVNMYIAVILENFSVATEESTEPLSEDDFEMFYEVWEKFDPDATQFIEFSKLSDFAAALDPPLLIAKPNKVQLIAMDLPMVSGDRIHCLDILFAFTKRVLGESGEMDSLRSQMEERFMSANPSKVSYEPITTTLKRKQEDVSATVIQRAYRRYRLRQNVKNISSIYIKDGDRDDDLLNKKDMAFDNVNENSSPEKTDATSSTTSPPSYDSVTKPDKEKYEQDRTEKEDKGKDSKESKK

IC50 | SMILES
1500 nM | CS(=O)(=O)NC(=O)c1cc(F)c(Oc2cnc(OC(CF)CF)c(Cl)c2)cc1F [Example 80, 4-({5-chloro-6-[2-fluoro-1-(fluoromethyl)ethoxy]pyridin-3-yl}oxy)-2,5-difluoro-N-(methylsulfonyl)benzamide]
30 nM | CS(=O)(=O)NC(=O)c1cc(Cl)c(Oc2cnc(C3CC3)c(Cl)c2)cc1F [Example 21, 5-chloro-4-[(5-chloro-6-cyclopropylpyridin-3-yl)oxy]-2-fluoro-N-(methanesulfonyl)benzamide]
640 nM | CS(=O)(=O)NC(=O)c1cc(F)c(Oc2cnc(N3CCC(F)C3)c(Cl)c2)cc1F (stereo not drawn) [Example 124, 4-{[5-chloro-6-(3-fluoropyrrolidin-1-yl)pyridin-3-yl]oxy}-2,5-difluoro-N-(methylsulfonyl)benzamide]
97 nM | CS(=O)(=O)NC(=O)c1cc(Cl)c(Oc2cnc(C3CC(F)(F)C3)c(Cl)c2)cc1F [Example 109, 5-chloro-4-{[5-chloro-6-(3,3-difluorocyclobutyl)pyridin-3-yl]oxy}-2-fluoro-N-(methylsulfonyl)benzamide]
110 nM | CS(=O)(=O)NC(=O)c1cc(F)c(Oc2cnc(OCC(F)(F)C(F)F)c(Cl)c2)cc1F [Example 45, 4-{[5-chloro-6-(2,2,3,3-tetrafluoropropoxy)pyridin-3-yl]oxy}-2,5-difluoro-N-(methylsulfonyl)benzamide]
120 nM | CS(=O)(=O)NC(=O)c1cc(F)c(Oc2cnc(N3CCC(F)(F)C3)c(Cl)c2)cc1F [Example 123, 4-{[5-chloro-6-(3,3-difluoropyrrolidin-1-yl)pyridin-3-yl]oxy}-2,5-difluoro-N-(methylsulfonyl)benzamide]
270 nM | CN(CC1CC1)c1ncc(Oc2cc(F)c(C(=O)NS(C)(=O)=O)cc2F)cc1Cl [Example 141, 4-({5-chloro-6-[(cyclopropylmethyl)(methyl)amino]pyridin-3-yl}oxy)-2,5-difluoro-N-(methylsulfonyl)benzamide]
140 nM | CC(C)C(F)(F)c1ncc(Oc2cc(F)c(C(=O)NS(C)(=O)=O)cc2Cl)cc1Cl [Example 60, 5-chloro-4-{[5-chloro-6-(1,1-difluoro-2-methylpropyl)pyridin-3-yl]oxy}-2-fluoro-N-(methylsulfonyl)benzamide]
76 nM | CS(=O)(=O)NC(=O)c1cc(F)c(Oc2cnc(N3CCCC3)c(Cl)c2)cc1F [Example 146, 4-[(5-chloro-6-pyrrolidin-1-ylpyridin-3-yl)oxy]-2,5-difluoro-N-(methylsulfonyl)benzamide]
> 1000 nM | CCN1CCN(c2ncc(Oc3cc(F)c(C(=O)NS(C)(=O)=O)cc3F)cc2Cl)CC1 [Example 118, 4-{[5-chloro-6-(4-ethylpiperazin-1-yl)pyridin-3-yl]oxy}-2,5-difluoro-N-(methylsulfonyl)benzamide]
470 nM | CC1CCN(c2ncc(Oc3cc(F)c(C(=O)NS(C)(=O)=O)cc3F)cc2Cl)CC1 [Example 126, 4-{[5-chloro-6-(4-methylpiperidin-1-yl)pyridin-3-yl]oxy}-2,5-difluoro-N-(methylsulfonyl)benzamide]
180 nM | CS(=O)(=O)NC(=O)c1cc(Cl)c(Oc2cnc(OC(F)F)c(Cl)c2)cc1F [Example 54, 5-chloro-4-{[5-chloro-6-(difluoromethoxy)pyridin-3-yl]oxy}-2-fluoro-N-(methylsulfonyl)benzamide]
> 1000 nM | CN1CCCC(Nc2ncc(Oc3cc(F)c(C(=O)NS(C)(=O)=O)cc3F)cc2Cl)C1 (stereo not drawn) [Example 127, 4-({5-chloro-6-[(1-methylpiperidin-3-yl)amino]pyridin-3-yl}oxy)-2,5-difluoro-N-(methylsulfonyl)benzamide]
49 nM | CS(=O)(=O)NC(=O)c1cc(Cl)c(Oc2cnc(C3CC3)c(C(F)(F)F)c2)cc1F [Example 107, 5-chloro-4-(6-cyclopropyl-5-(trifluoromethyl)pyridin-3-yloxy)-2-fluoro-N-(methylsulfonyl)benzamide]

Second part, the compound before the results:

SMILES | IC50
Cc1cc2ccccc2nc1Oc1cc(F)c(C(=O)NS(C)(=O)=O)cc1F [Example 196, 2,5-difluoro-4-[(3-methylquinolin-2-yl)oxy]-N-(methylsulfonyl)benzamide] | > 3000 nM
CS(=O)(=O)NC(=O)c1ccc(Oc2cnc(N3CCCCC3)nc2)c(Cl)c1 [Example 4, 3-Chloro-N-(methylsulfonyl)-4-[(2-piperidin-1-ylpyrimidin-5-yl)oxy]benzamide] | 300 nM
CS(=O)(=O)NC(=O)c1cc(Cl)c(Oc2cnc(C3CC3)c(OC(F)F)c2)cc1F [Example 106, 5-chloro-4-(6-cyclopropyl-5-(difluoromethoxy)pyridin-3-yloxy)-2-fluoro-N-(methylsulfonyl)benzamide] | 1100 nM
CS(=O)(=O)NC(=O)c1cc(Cl)c(Oc2cnc(OCCC(F)(F)F)c(Cl)c2)cc1F [Example 13, 5-Chloro-4-{[5-chloro-6-(3,3,3-trifluoropropoxy)pyridin-3-yl]oxy}-2-fluoro-N-(methylsulfonyl)benzamide] | 50 nM
CC(C)(F)COc1ncc(Oc2cc(F)c(C(=O)NS(C)(=O)=O)cc2Cl)cc1Cl [Example 57, 5-chloro-4-{[5-chloro-6-(2-fluoro-2-methylpropoxy)pyridin-3-yl]oxy}-2-fluoro-N-(methylsulfonyl)benzamide] | 94 nM
CC(C)(Oc1ncc(Oc2cc(F)c(C(=O)NS(C)(=O)=O)cc2Cl)cc1Cl)C(F)(F)F [Example 76, 5-chloro-4-{[5-chloro-6-(2,2,2-trifluoro-1,1-dimethylethoxy)pyridin-3-yl]oxy}-2-fluoro-N-(methylsulfonyl)benzamide] | 9.4 nM
CC(C)Oc1ncc(Oc2ccc(C(=O)NS(C)(=O)=O)cc2F)cc1Cl [Example 33, 4-[(5-chloro-6-isopropoxypyridin-3-yl)oxy]-3-fluoro-N-(methylsulfonyl)benzamide] | 700 nM
CC(C)COc1ncc(Oc2ccc(C(=O)NS(C)(=O)=O)c(F)c2)cc1Cl [Example 74, 4-[(5-chloro-6-isobutoxypyridin-3-yl)oxy]-2-fluoro-N-(methylsulfonyl)benzamide] | 50 nM
Cc1nc2ccccc2nc1Oc1cc(F)c(C(=O)NS(C)(=O)=O)cc1F [Example 187, 2,5-difluoro-4-[(3-methylquinoxalin-2-yl)oxy]-N-(methylsulfonyl)benzamide] | > 3000 nM
CC(C)Oc1ncc(Oc2cc(F)c(C(=O)NS(C)(=O)=O)cc2Cl)cn1 [Example 61, 5-chloro-2-fluoro-4-[(2-isopropoxypyrimidin-5-yl)oxy]-N-(methylsulfonyl)benzamide] | 5500 nM
CC(C)Oc1ncc(Oc2ccc(C(=O)NS(C)(=O)=O)cc2)cc1Cl [Example 84, 4-[(5-chloro-6-isopropoxypyridin-3-yl)oxy]-N-(methylsulfonyl)benzamide] | 850 nM
CS(=O)(=O)NC(=O)c1cc(Cl)c(Oc2cnc(C3CC3)c(C3CC3)c2)cc1F [Example 113, 5-chloro-4-[(5,6-dicyclopropylpyridin-3-yl)oxy]-2-fluoro-N-(methylsulfonyl)benzamide] | 53 nM
COc1ncc(Oc2ccc(C(=O)NS(C)(=O)=O)cc2Cl)cc1Cl [Example 83, 3-chloro-4-[(5-chloro-6-methoxypyridin-3-yl)oxy]-N-(methylsulfonyl)benzamide] | > 10000 nM
CC(C)COc1ncc(Oc2ccc(C(=O)NS(C)(=O)=O)cc2)cc1Cl [Example 14, 4-[(5-Chloro-6-isobutoxypyridin-3-yl)oxy]-N-(methylsulfonyl)benzamide] | 140 nM
CC(C)n1ncc2cc(Oc3cc(F)c(C(=O)NS(C)(=O)=O)cc3Cl)ccc21 [Example 20, 5-Chloro-2-fluoro-4-[(1-isopropyl-1H-indazol-5-yl)oxy]-N-(methylsulfonyl)benzamide] | > 3000 nM
CS(=O)(=O)NC(=O)c1ccc(Nc2cnc(OC(C(F)(F)F)C(F)(F)F)c(Cl)c2)cc1 [Example 103, 4-(5-chloro-6-(1,1,1,3,3,3-hexafluoropropan-2-yloxy)Pyridin-3-ylamino)-N-(methylsulfonyl)benzamide] | 400 nM
